Results published in publication PMC12040169 (PLOS Biology, 2025).

Assay: in vitro
Settings: human, hela cells, % viability

Row | SMILES | viability at 28.5 h, 10 µM [%]
1 | CC1(C)[C@H]2CC/C(=N/O)[C@]1(C)NC2=O [CBK006513] | 84.8
2 | COc1cc(OC)c2nc(C(F)(F)F)cc(Cl)c2c1 [CBK006518] | 83.1
3 | O=C(O)c1nn(-c2ccccc2)c2cc([N+](=O)[O-])ccc12 [CBK006532] | 95
4 | COC(=O)CC1(C)C(=O)CCC2(C)C1=CCc1ccccc12 (stereo not shown) [CBK006547] | 105
5 | O=C1CC(Cl)Sc2sc3ccccc3c21 (stereo not shown) [CBK006551] | 86.6
6 | COC(=O)Cc1c(O)nn(C)c1Cc1cccc(C(F)(F)F)c1 [CBK006608] | 99.5
7 | O=C1C[C@H]2[C@H](CC3(SCCS3)[C@@H]2CO)O1 [CBK006615] | 90.2
8 | Nc1ncnc(Nc2cc(C(F)(F)F)cc(C(F)(F)F)c2)n1 [CBK006617] | 86.8
9 | C/C(=N\N=C1/NC(=O)C(CC(=O)O)S1)c1ccc(CC(C)C)cc1 (stereo not shown) [CBK006661] | 93.5
10 | C#CCOC(=O)NC(=O)c1csnn1 [CBK006685] | 114
11 | CC(=O)CSc1nsc(SCC(C)=O)n1 [CBK006702] | 89.6
12 | C1C/C(=N/N=C2\CCCc3nonc32)c2nonc2C1 [CBK006721] | 93.9
13 | O=[N+]([O-])c1ccc(Sc2ccccc2C2=NCCCN2)nc1 [CBK006747C] | 101
14 | Brc1cccc(NN=C2CCCC2)n1 [CBK006748] | 85.3
15 | OC12CCCON1OC(c1ccccc1)C2 (stereo not shown) [CBK006752] | 111
16 | O=C1NN=C(CSCCO)Oc2ccccc21 [CBK006771] | 88.5
17 | CC(=O)c1sc(=S)n(N(C)C)c1C [CBK006774] | 91.6
18 | CCN(CC)C1=NC(=S)N(C)C(c2ccc(OC)cc2)S1 (stereo not shown) [CBK006804] | 99.3
19 | COc1cc(C2CC(=O)N(c3cc(C)on3)C(=O)C2)cc(OC)c1OC [CBK006810] | 109
20 | Cc1nn(-c2ccccc2)c2sncc12 [CBK006869] | 109

Row | SMILES | viability at 28.5 h, 10 µM [%]
21 | c1ccc(C2=NN=C(N3CCOCC3)SC2)cc1 [CBK006876G] | 97.3
22 | NNC(=O)CSc1nnc2ccc(C(F)(F)F)cn12 [CBK006897] | 90.3
23 | O=C(O)c1cc(Sc2nnnn2-c2ccccc2)c2ccccc2c1O [CBK006925] | 87.8
24 | COc1ccc(C)cc1N1CCCN(c2cc(C)ccc2OC)C1=O [CBK006937] | 84.8
25 | O=C(CCCC(=O)N1CCCC1)N1CCCC1 [CBK006992] | 108
26 | CCOC(=O)c1ccoc1C[N+](C)(CC)CC [CBK007022I] | 83.7
27 | CC(=O)OC(C(=O)N1CCCCCC1)c1ccc(Br)cc1 (stereo not shown) [CBK007027] | 109
28 | CNS(=O)(=O)N1CCN(S(=O)(=O)NC)CC1 [CBK007064] | 93.7
29 | CCCC1NCCn2cccc21 (stereo not shown) [CBK007074F] | 85.6
30 | S=C1NCCN1c1nnc(-c2cccs2)[nH]1 [CBK007096] | 97.3
31 | O=C(c1cc(Br)cc2c1OCC2)N1CCCCC1 [CBK007109] | 91.8
32 | CCOC(=O)c1nc(C)sc1-c1ccnn1S(C)(=O)=O [CBK007130] | 108
33 | Cc1ccc(NC(=S)N2CCCC2C(=O)O)c(C)c1 (stereo not shown) [CBK007148] | 79.3
34 | CCCCCn1c(O)nnc1SCc1csc(CS(=O)(=O)c2ccc(Cl)cc2)n1 [CBK007176] | 80.7
35 | COc1ccc(OCCN2C(=O)CNC2=S)cc1 [CBK007177] | 77
36 | CC(C)(C)Oc1nc(=O)[nH]c(=O)[nH]1 [CBK007194] | 98.3
37 | CC(=O)N1c2ccccc2N(C(C)=O)C1c1ccc(C2N(C(C)=O)c3ccccc3N2C(C)=O)[nH]1 [CBK007216] | 110
38 | CC(=O)N1c2ccccc2C(C)=CC1C1CCCC(=O)C1 (stereo not shown) [CBK007219] | 101
39 | O/N=C1\CSCc2ncccc21 [CBK007234] | 90.1
40 | FC(F)(F)c1cnc(Sc2c[nH]nn2)c(Cl)c1 [CBK007252] | 93.3
